Assay results as given in patent publication US9539259B2, “Compounds and methods of use thereof for treating neurodegenerative disorders” (THE JOHNS HOPKINS UNIVERSITY, priority 2012, dated 2017).
Like-named read-outs stand apart in the source and are kept apart here.

How the values were obtained:
[1] = test system: primary RGCs; experiment: Survival of immunopanned primary RGCs in culture; settings: for neuroprotective activity, RGC survival by CellTiter-Glo luminescence: murine purified RGCs, neurotrophin-depleted media, 72 hours, sunitinib as positive control; for RGC survival / neuroprotective activity in culture: immunopanned RGCs, increasing doses, 72 hours in culture
Procedure: All animal use was in accordance with ARVO Statement for the Use of Animals, and all the experimental procedures were performed in compliance with animal protocols approved by the IACUC at Johns Hopkins University. Retinas were isolated from postnatal 0-5 day mice and dissociated with papain. Microglia was immunodepleted with anti-CD11b conjugated Dynabeads. The suspension of retinal cells were immunopanned on plates pre-conjugated with anti-Thy1.2 antibody (Serotec, Raleigh, N.C.; MCA028) and goat anti-mouse IgM (Jackson Immunoresearch) at room temperature (RT). After washing, RGCs were released from the plate by a cell lifter, counted, and seeded at a density of 10,000 per well in 96-well plates in the media composed of Neurobasal, B27, N2 supplement, L-glutamine, and penicillin/streptomycin. After a 72 hour culture at 37° C., RGCs were stained with calcein AM, ethidium homodimer, and Hoechst 33342. Images were taken from portions of each well with Cellomics Kinetscan or Cellomics ArrayScan VTI HCS Readers (Thermo Fisher), and cell survival was quantified and calculated with the algorithms in Cellomics Neuroprofiling package. As indicated, RGC viability was alternatively measured by CellTiter-Glo luminescence (Promega, Fitchburg, Wis.).
For siRNA-based screening, the siRNAs from the Sigma Mission Mouse Kinome library were complexed with NeuroMag (Oz Biosciences, Marseille, France) at a final concentration of 20 nM. RGCs were then reverse transfected on a stationary magnet and assayed for survival 72 hours later using CellTiter-Glo (Promega). […] Confirmatory siRNAs were obtained from both Dharmacon (Lafayette, Colo.) and Ambion (Carlsbad, Calif.). Adenovirus expressing wildtype or kinase-dead DLK (Robitaille et al., 2004) was added to RGCs at a multiplicity of infection of 100-1000. For small molecule-based screening, serially diluted compounds in DMSO were transferred to 1536 well assay plates by a 23 nL pintool array (Kalypsys, San Diego, Calif.), with a final concentration of 0.057% DMSO for each respective compound concentration. RGCs were cultured for 48 h, and cell viability was analyzed on a plate reader (ViewLux, Perkin Elmer, Waltham, Mass.) using the bioluminescent CellTiterGlo (Promega, Fitchburg, Wis.) assay. Concentration response curves were created using CurveFit (NIH NCATS). The screened libraries include the modified Tocriscreen (1395 compounds) collection, FDA-approved drugs (2814 compounds), LOPAC (1208 compounds) and PTL2/PTL3 (based on pteridin, pyrimidine and quinazoline scaffolds; 2319 compounds).
In order to identify novel neuroprotective agents, a high-content, high-throughput, phenotypic screen was developed using primary RGCs. RGCs were immunopanned from perinatal mice using an antibody against the RGC surface antigen Thy1 (Barres et al., 1988), arrayed into microtiter (96- to 1536-well) plates, and cell survival in the presence of various bioactive small molecules was assayed 72 hours later.

[2] = target: T1, DLK (Homo sapiens, UniProt Q12852); settings: published kinase inhibitor profiles; cited from earlier work
T1 sequence (Q12852 1-859): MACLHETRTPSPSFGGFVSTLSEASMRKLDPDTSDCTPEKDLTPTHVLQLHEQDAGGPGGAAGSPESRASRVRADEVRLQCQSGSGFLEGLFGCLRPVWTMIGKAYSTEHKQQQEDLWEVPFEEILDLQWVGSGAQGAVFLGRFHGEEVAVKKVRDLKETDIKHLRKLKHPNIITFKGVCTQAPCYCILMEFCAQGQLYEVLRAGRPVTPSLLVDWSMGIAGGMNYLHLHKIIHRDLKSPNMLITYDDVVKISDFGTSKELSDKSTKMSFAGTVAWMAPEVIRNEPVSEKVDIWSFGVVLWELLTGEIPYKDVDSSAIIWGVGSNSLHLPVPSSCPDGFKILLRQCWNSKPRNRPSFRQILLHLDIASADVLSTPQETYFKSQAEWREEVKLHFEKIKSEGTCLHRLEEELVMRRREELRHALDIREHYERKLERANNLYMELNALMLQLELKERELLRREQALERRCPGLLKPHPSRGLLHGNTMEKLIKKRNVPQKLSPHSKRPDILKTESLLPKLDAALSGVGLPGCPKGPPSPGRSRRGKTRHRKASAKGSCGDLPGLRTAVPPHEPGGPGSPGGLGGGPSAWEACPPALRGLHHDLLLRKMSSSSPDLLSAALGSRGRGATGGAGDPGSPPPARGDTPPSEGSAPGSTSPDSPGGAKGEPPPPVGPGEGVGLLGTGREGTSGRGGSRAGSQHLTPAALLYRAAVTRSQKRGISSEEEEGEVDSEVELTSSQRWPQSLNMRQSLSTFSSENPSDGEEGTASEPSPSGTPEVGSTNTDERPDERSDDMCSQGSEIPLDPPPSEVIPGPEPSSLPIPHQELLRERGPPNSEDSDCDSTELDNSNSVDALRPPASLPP

[3] = test system: optic nerve axons; experiment: Rat laser-induced ocular hypertension (glaucoma model), optic nerve axon counts; settings: for reduction of optic nerve axon loss: intravitreal drug-eluting PLGA microspheres, pretreatment, at one month
Procedure: 6-week old male Wistar rats were anesthetized with ketamine/xylazine. A partial periotomy was made to expose the sclera. The injection site was approximately 1 mm posterior to the ora serrata, and the injection glass pipet was angled towards the optic disc in order to avoid lens injury. 5 μL (10 μg) of PLGA microspheres were injected with a glass pipet and Hamilton syringe.
Intraocular pressure (TOP) was unilaterally elevated by laser treatment of the trabecular meshwork as previously described (Levkovitch-Verbin, H. et al., 2002). Briefly, 6-week old Wistar male rats were anesthetized with ketamine/xylazine. On two consecutive weeks, 40-50 532 nm diode laser spots were applied to the prelimbal region (50 μm diameter, 600 mW power and 0.6 seconds duration). Under anesthesia, the IOP of laser-treated and fellow eyes was measured with TonoLab one and three days after laser treatment. Four weeks following laser treatment, rats were perfused with 4% paraformaldehyde in phosphate buffer. Optic nerves were isolated, postfixed with 1% osmium tetroxide, embedded in epoxy resin and stained with 1% toluidine blue. Images from 10 random and nonoverlapping fields were taken with 100× oil phase contrast objective. The area of entire optic nerve cross-sections were imaged with 10× magnification, and used with axon counts from the 10 field to derive axon counts per nerve. The laser treatment and acquisition of optic nerve images were performed in a masked fashion.
Sunitinib, or its vehicle control, were packaged in poly(lactic-co-glycolic acid) (PLGA)-based, slow-eluting microspheres (Edwards, 1997) and injected intravitreally into Wistar rats.

[4] = test system: RGCs; experiment: Rat optic nerve transection, RGC survival; format: in vivo, Wistar rats
[5] = test system: JNK1/2/3; settings: published kinase inhibitor profiling; cited from earlier work
[6] = test system: DLK siRNA-transfected RGCs; experiment: Survival of RGCs transfected with DLK or control siRNA in the presence of inhibitor; format: cell-based, mouse; settings: 72 hours after transfection, increasing doses
Procedure: (§1) The shaded area indicates the toxic range for tozasertib; (B) Western blot of the DLK pathway members in RGCs 4 hours after immunopanning in the presence of 0, 0.03, 0.06, 0.125, 0.25, 0.5, 1 or 2 μM tozasertib; (C) survival of cultured RGCs 72 hours after transfection with DLK (dashed) or nontargeting siRNA (solid) in the presence of increasing doses of tozasertib; and (D) survival of cultured RGCs 48 hours after transduction with DLK expressing adenovirus in the presence of increasing doses of tozasertib. Error bars show standard deviation; and
(§2) Concentration response curves were created using CurveFit (NIH NCATS).

[7] = test system: RGCs overexpressing DLK; experiment: Survival of RGCs transduced with DLK-expressing adenovirus in the presence of inhibitor; format: cell-based, mouse
Procedure: as §1, §2

[8] = test system: MKK4/7; settings: published kinase inhibitor profiling; cited from earlier work
[9] = test system: DLK signaling (phosphorylation of MKK7 and JNK); experiment: Western blot of DLK pathway members in RGCs; format: cell-based, mouse; settings: RGCs 4 hours after immunopanning, concentrations that increase RGC survival
Procedure: as §1
Western blots were performed according to the standard protocol. The following antibodies were from Cell Signaling Technology (Beverly, Mass.): Phospho-JNK, Thr183/Tyr185 (4671); JNK (9258); Phospho-MKK7 (4171), and MKK7 (4172). Monoclonal anti-alpha-tubulin antibody (T6074) was purchased from Sigma (St. Louis, Mo.), βIII tubulin (TUJ1) from Covance, goat polyclonal Brn3 from C-13, and rabbit anti-Cre from Novus. DLK rabbit polyclonal was provided by S. Hirai.

Row | Compound | neuroprotective activity, RGC survival by CellTiter-Glo luminescence [1] | RGC survival / neuroprotective activity in culture [1] | binding to DLK [2] | further results
1 | COc1cc2nccc(Oc3ccc(NC(=O)C4(C(=O)Nc5ccc(F)cc5)CC4)cc3)c2cc1OC [cabozantinib] | neuroprotective activity |  |  | 
2 | Cc1nc(Nc2ncc(C(=O)Nc3c(C)cccc3Cl)s2)cc(N2CCN(CCO)CC2)n1 [dasatinib] | neuroprotective activity |  |  | 
3 | C[C@]12O[C@H](C[C@]1(O)CO)n1c3ccccc3c3c4c(c5c6ccccc6n2c5c31)CNC4=O [lestautinib, lestaurtinib] |  | promoted the survival of primary RGCs in culture |  | 
4 | CNC(=O)c1ccccc1Sc1ccc2c(/C=C/c3ccccn3)n[nH]c2c1 [axitinib] | neuroprotective activity | promoted the survival of primary RGCs in culture | reported to bind DLK | 
5 | CN(C)S(=O)(=O)c1ccc2c(c1)/C(=C/c1cc3c([nH]1)CCCC3)C(=O)N2 [SU6656] |  | neuroprotective |  | 
6 | Cc1ccc(NC(=O)c2ccc(CN3CCN(C)CC3)cc2)cc1Nc1nccc(-c2cccnc2)n1 [imatinib] |  | lack neuroprotective activity |  | 
7 | CNC(=O)c1cc(Oc2ccc(NC(=O)Nc3ccc(Cl)c(C(F)(F)F)c3)cc2)ccn1 [sorafenib] |  | lack neuroprotective activity |  | 
8 | C[C@@H](Oc1cc(-c2cnn(C3CCNCC3)c2)cnc1N)c1c(Cl)ccc(F)c1Cl [crizotinib] | neuroprotective activity | promoted the survival of primary RGCs in culture | reported to bind DLK | 
9 | COc1cc(Nc2c(C#N)cnc3cc(OCCCN4CCN(C)CC4)c(OC)cc23)c(Cl)cc1Cl [bosutinib] | neuroprotective activity | promoted the survival of primary RGCs in culture | reported to bind DLK | 
10 | Cc1cc(Nc2cc(N3CCN(C)CC3)nc(Sc3ccc(NC(=O)C4CC4)cc3)n2)[nH]n1 [tozasertib] |  | promoted the survival of primary RGCs in culture | reported to bind DLK | neuroprotection in glaucoma model ([3]; intravitreal PLGA microspheres / slow release formulation): protected RGCs; reduction of optic nerve axon loss [3]: 39%; RGC survival / neuroprotective activity in culture ([1]; listed as Tozasertib): significant neuroprotective activity; surviving RGCs ([4]; intravitreal PLGA microspheres 7 days before transection, two weeks after transection, vehicle 12.0%): 32.3%; protection of RGCs in optic nerve transection model ([4]; intravitreal slow release formulation): protected RGCs; affinity for JNK [5]: does not have significant affinity; effect on survival of DLK siRNA-transfected RGCs [6]: left-shift of the tozasertib-survival dose-response curve; effect on toxicity / survival with adenoviral-overexpressed DLK [7]: right-shift of the tozasertib-survival dose-response curve; affinity for MKK4/7 [8]: does not have significant affinity; phosphorylation of targets downstream of DLK, including MKK7 and JNK [9]: decrease in the phosphorylation of targets downstream of DLK
11 | CCN(CC)CCNC(=O)c1c(C)[nH]c(/C=C2\C(=O)Nc3ccc(F)cc32)c1C [sunitinib] |  |  |  | reduction of optic nerve axon loss [3]: 40%; toxicity in RGC culture ([1]; primary RGCs in culture): cytotoxicity at high concentrations; increase in surviving RGCs compared to control animals ([4]; intravitreal PLGA microspheres 7 days before transection, two weeks post-transection): 3-4 fold
12 | COc1cc2c(Oc3ccc(NC(=O)C4(C(=O)Nc5ccc(F)cc5)CC4)cc3F)ccnc2cc1OCCCN1CCOCC1 [foretinib] | neuroprotective activity | promoted the survival of primary RGCs in culture | reported to bind DLK | 
13 | COc1cc(N2CCC(N3CCN(C)CC3)CC2)ccc1Nc1ncc(Cl)c(Nc2ccccc2S(=O)(=O)C(C)C)n1 [TAE-684] |  |  | reported to bind DLK | toxicity in RGC culture [1]: limited by toxicity at nanomolar doses
14 | CCOc1cc2ncc(C#N)c(Nc3ccc(OCc4ccccn4)c(Cl)c3)c2cc1NC(=O)/C=C/CN(C)C [neratinib] |  |  | reported to bind DLK | toxicity in RGC culture [1]: limited by toxicity at nanomolar doses
15 | Clc1ccc(Nc2nnc(Cc3ccncc3)c3ccccc23)cc1 [vatalanib] |  | lack neuroprotective activity |  | 
16 | O=C(c1ccc(/C=C/c2n[nH]c3ccccc23)cc1)N1CCNCC1 [KW-2449] | neuroprotective activity | promoted the survival of primary RGCs in culture | reported to bind DLK | 
